# Values of other authors, collected in US12133912B2, “Stable pharmaceutical compositions of succinylcholine chloride” (Slayback Pharma LLC., priority 2021, dated 2024).
# How the values were obtained:
# [1] = molecular target: T1, cholinergic receptors of the motor end plate (Homo sapiens, UniProt P02708+Q04844+Q07001); conditions: after intravenous administration
# T1 construct: Succinylcholine combines with the cholinergic receptors of the motor end plate to produce depolarization; from tissue; host or cells: motor end plate of skeletal muscle, in vivo after intravenous administration
# T1 sequence (P02708 21-457): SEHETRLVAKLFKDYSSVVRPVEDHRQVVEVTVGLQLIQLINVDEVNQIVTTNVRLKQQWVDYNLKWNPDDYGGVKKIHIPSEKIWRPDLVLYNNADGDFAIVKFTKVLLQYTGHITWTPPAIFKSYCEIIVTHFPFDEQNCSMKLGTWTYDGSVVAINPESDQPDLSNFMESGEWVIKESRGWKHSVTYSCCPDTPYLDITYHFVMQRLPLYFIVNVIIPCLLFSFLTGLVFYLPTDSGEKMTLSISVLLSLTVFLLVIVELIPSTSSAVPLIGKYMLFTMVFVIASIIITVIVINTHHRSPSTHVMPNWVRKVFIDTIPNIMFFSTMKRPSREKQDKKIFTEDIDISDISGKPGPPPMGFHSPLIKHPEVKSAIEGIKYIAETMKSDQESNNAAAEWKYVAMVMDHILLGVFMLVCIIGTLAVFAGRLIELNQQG
# T1 sequence (Q07001 22-517): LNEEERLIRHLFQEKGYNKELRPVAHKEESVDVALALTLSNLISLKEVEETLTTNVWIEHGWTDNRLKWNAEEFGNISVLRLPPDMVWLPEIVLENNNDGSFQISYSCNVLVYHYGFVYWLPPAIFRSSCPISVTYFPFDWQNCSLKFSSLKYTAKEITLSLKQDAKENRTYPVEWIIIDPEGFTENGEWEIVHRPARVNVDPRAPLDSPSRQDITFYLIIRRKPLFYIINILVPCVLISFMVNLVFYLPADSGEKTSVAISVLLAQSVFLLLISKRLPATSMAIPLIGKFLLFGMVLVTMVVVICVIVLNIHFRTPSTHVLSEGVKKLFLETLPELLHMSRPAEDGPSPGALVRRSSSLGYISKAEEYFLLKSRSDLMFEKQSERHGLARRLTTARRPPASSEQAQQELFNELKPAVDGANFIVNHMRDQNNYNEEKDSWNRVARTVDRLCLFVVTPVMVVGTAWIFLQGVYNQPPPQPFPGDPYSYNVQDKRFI
# T1 sequence (Q04844 21-493): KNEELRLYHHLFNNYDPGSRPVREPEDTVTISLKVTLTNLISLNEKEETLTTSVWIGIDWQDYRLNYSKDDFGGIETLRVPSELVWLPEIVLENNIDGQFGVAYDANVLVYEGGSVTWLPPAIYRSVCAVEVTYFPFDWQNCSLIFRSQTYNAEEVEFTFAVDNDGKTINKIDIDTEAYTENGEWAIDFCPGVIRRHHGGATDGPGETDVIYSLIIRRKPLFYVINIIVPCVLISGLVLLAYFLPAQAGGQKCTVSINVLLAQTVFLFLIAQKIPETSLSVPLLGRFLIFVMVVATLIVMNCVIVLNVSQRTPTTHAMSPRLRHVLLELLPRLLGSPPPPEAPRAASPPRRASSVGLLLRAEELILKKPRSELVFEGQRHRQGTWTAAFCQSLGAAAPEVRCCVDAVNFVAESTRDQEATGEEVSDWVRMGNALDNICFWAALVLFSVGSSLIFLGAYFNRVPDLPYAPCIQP
# T1 sequence (P11230 24-501 partner): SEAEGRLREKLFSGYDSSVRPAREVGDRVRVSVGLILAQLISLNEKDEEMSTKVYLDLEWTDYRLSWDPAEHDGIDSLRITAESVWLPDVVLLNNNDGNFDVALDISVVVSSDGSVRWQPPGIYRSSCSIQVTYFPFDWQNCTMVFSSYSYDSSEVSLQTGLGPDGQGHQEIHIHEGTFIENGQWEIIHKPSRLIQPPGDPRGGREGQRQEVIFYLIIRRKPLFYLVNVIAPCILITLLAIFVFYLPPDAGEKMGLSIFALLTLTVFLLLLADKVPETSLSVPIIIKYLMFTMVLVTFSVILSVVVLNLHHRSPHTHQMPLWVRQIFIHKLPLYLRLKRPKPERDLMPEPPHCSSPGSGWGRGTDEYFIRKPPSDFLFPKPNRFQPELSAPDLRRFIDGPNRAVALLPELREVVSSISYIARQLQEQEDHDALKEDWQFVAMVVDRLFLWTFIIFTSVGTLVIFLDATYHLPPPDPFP
compound,measurement,setting,value
"C[N+](C)(C)CCOC(=O)CCC(=O)OCC[N+](C)(C)C [Succinylcholine chloride, 2,2′-[(1,4-dioxo-1,4-butanediyl)bis(oxy)]bis[N,N,Ntrimethylethanaminium] dichloride]",Solubility in alcohol,alcohol,slightly soluble
same,Solubility in ether,ether,practically insoluble
same,Solubility in water,water,freely soluble
same,Onset of flaccid paralysis,[1],less than one
